Key:
[1] = biological target: Uracil-DNA glycosylase (Homo sapiens) (UniProt P13051); settings: Hit No;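 note: UNG excision on a quenched double-stranded DNA oligo probe, with APE1 added for strand incision and turnover, read as fluorescence at 594 nm as strands separate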
Description: Inhibition of UNG by quantifying inhibition of UNG-mediated cleavage and dissociation of quenched duplex DNA oligonucleotides, measured as fluorescence at 594 nm. To generate a functional strand incision and increase turn-over this assay is coupled to APE1.

[2] = biological target: Methyl-CpG-binding domain protein 4 (Homo sapiens) (UniProt O95243); settings: Hit No;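 note: MBD4 activity read as fluorescence at 594 nm from cleavage and release of a quenched duplex DNA oligonucleotide, with APE1 coupled to incise the strand and raise turnover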
Description: Inhibition of MBD4 by quantifying inhibition of MBD4-mediated cleavage and dissociation of quenched duplex DNA oligonucleotides, measured as fluorescence at 594 nm. To generate a functional strand incision and increase turn-over this assay is coupled to APE1.

[3] = biological target: T1, Adenine DNA glycosylase (Homo sapiens) (UniProt Q9UIF7); settings: Hit No;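 note: human MUTYH activity read as 594 nm fluorescence from cleavage and release of a quenched DNA duplex, coupled with APE1 for strand incision, lower signal meaning inhibition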
T1 sequence (whole entry): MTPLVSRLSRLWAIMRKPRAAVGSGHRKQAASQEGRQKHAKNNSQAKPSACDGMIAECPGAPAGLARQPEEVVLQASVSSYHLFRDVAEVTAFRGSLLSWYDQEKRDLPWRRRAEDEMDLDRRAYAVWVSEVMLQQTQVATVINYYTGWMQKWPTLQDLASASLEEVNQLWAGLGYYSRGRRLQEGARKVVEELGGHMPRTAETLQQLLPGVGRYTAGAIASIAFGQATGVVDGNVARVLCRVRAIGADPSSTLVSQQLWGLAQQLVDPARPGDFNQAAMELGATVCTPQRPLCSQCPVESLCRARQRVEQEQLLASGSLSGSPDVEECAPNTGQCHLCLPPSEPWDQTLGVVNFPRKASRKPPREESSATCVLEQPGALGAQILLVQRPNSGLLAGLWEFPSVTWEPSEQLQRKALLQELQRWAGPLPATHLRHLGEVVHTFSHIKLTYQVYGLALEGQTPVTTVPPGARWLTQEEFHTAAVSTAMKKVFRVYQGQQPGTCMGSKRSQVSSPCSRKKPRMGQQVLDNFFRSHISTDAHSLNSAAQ
Description: Inhibition of MUTYH by quantifying inhibition of MUTYH-mediated cleavage and dissociation of quenched duplex DNA oligonucleotides, measured as fluorescence at 594 nm. To generate a functional strand incision and increase turn-over this assay is coupled to APE1.

[4] = biological target: Endonuclease 8-like 1 (Homo sapiens) (UniProt Q96FI4); settings: Hit No;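 note: fluorescence at 594 nm from quenched duplex DNA oligonucleotides released by NEIL1 cleavage and strand separation, reported as reduction of this enzyme activity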
Description: Inhibition of NEIL1 by quantifying inhibition of NEIL1-mediated cleavage and dissociation of quenched duplex DNA oligonucleotides, measured as fluorescence at 594 nm.

[5] = biological target: G/T mismatch-specific thymine DNA glycosylase (Homo sapiens) (UniProt Q13569); settings: Hit No;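 note: human TDG cleavage of quenched duplex DNA oligonucleotides coupled to APE1, strand release read as fluorescence at 594 nm, inhibition of TDG activity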
Description: Inhibition of TDG by quantifying inhibition of TDG-mediated cleavage and dissociation of quenched duplex DNA oligonucleotides, measured as fluorescence at 594 nm. To generate a functional strand incision and increase turn-over this assay is coupled to APE1.

[6] = biological target: T2, Single-strand selective monofunctional uracil DNA glycosylase (Homo sapiens) (UniProt Q53HV7); settings: Hit No;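 note: enzymatic SMUG1 assay coupled with APE1, reading fluorescence at 594 nm released when a quenched double-stranded DNA oligonucleotide substrate is cleaved and separated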
T2 sequence (whole entry): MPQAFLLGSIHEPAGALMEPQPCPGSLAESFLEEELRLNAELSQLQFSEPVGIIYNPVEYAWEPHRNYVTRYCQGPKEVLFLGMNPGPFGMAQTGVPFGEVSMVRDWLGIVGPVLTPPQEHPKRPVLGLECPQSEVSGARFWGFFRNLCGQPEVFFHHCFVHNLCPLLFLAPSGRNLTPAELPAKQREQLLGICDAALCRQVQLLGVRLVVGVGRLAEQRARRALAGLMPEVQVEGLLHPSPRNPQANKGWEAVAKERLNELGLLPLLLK
Description: Inhibition of SMUG1 by quantifying inhibition of SMUG1-mediated cleavage and dissociation of quenched duplex DNA oligonucleotides, measured as fluorescence at 594 nm. To generate a functional strand incision and increase turn-over this assay is coupled to APE1.

[7] = biological target: N-glycosylase/DNA lyase (Homo sapiens) (UniProt O15527); settings: Hit No;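 note: OGG1 cleavage of a quenched duplex DNA oligonucleotide, coupled to APE1 for strand incision, read as fluorescence at 594 nm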
Description: Inhibition of OGG1 by quantifying inhibition of OGG1-mediated cleavage and dissociation of quenched duplex DNA oligonucleotides, measured as fluorescence at 594 nm. To generate a functional strand incision and increase turn-over this assay is coupled to APE1.

[8] = biological target: T3, Endonuclease 8-like 2 (Homo sapiens) (UniProt Q969S2); settings: Compound Concentration 10.0 uM, Hit No;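 note: fluorescence at 594 nm reports NEIL2 cutting and release of a quenched double-stranded DNA oligo substrate, reduced signal read as inhibition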
T3 sequence (whole entry): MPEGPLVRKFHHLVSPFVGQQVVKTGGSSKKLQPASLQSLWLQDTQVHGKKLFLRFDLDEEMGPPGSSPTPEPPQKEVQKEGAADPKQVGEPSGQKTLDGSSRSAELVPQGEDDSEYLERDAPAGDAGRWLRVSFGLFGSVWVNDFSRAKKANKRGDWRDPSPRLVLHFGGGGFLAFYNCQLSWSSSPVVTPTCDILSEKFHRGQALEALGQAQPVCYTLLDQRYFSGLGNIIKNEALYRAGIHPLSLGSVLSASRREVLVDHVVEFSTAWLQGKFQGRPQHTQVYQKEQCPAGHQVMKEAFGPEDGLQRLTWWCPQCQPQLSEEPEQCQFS
Description: Inhibition of NEIL2 by quantifying inhibition of NEIL2-mediated cleavage and dissociation of quenched duplex DNA oligonucleotides, measured as fluorescence at 594 nm.

G/T mismatch-specific thymine DNA glycosylase (Homo sapiens), sequence (Q13569 whole entry): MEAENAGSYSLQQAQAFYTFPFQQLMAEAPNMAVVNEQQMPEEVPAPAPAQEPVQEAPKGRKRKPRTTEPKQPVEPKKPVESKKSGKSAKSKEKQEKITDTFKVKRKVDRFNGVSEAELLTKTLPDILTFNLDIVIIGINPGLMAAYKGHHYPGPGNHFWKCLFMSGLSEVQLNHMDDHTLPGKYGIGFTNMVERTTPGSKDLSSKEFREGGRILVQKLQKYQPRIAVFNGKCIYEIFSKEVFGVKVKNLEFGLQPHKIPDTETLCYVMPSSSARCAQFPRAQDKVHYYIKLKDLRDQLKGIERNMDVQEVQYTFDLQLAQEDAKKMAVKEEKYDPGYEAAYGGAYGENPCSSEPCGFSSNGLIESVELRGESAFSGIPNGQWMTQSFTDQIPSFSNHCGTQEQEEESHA
Endonuclease 8-like 1 (Homo sapiens), sequence (Q96FI4 whole entry): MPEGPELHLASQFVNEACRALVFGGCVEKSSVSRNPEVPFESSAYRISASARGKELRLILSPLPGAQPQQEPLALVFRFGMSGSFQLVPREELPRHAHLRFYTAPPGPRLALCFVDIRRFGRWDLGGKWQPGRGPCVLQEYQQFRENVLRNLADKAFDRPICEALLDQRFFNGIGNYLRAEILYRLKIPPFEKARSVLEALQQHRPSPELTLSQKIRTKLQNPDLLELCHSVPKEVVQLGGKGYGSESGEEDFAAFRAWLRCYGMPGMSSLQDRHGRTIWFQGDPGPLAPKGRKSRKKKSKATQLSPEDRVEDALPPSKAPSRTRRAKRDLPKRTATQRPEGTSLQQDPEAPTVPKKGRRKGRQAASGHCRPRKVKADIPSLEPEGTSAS
Methyl-CpG-binding domain protein 4 (Homo sapiens), sequence (O95243 whole entry, the tested form may be a part): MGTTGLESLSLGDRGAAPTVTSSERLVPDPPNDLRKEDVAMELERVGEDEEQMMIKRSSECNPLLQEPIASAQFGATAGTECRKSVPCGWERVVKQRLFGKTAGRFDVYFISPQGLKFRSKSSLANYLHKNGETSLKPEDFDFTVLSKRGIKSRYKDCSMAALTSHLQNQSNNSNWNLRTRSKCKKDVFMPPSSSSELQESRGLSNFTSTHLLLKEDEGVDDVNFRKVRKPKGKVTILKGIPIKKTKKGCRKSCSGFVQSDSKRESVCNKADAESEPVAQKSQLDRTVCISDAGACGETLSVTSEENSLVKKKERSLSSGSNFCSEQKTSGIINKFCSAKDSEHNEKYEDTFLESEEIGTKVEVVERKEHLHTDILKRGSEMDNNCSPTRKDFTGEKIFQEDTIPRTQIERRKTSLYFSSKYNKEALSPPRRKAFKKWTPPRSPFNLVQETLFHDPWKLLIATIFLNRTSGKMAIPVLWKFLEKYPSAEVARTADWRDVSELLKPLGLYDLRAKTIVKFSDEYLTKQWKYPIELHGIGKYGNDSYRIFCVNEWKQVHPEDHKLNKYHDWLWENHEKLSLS
N-glycosylase/DNA lyase (Homo sapiens), sequence (O15527 whole entry): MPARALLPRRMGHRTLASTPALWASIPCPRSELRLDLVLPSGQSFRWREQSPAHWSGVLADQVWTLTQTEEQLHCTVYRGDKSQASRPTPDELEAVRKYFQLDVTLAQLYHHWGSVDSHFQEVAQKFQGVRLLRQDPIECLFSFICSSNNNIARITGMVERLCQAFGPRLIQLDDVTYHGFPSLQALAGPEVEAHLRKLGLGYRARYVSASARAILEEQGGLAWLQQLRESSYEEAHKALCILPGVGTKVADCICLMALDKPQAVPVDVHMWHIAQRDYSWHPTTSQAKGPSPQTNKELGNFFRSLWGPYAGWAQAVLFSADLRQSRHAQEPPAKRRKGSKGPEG
Uracil-DNA glycosylase (Homo sapiens), sequence (P13051 whole entry, the tested form may be a part): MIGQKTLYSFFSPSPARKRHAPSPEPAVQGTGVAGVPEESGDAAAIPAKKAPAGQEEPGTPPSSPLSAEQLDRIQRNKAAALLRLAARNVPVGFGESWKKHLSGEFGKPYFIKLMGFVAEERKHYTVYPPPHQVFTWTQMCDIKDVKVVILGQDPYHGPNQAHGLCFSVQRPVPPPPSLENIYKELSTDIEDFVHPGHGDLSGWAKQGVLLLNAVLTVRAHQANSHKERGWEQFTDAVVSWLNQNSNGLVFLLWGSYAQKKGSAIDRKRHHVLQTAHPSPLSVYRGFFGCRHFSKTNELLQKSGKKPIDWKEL

Compound	inhibition ([1]; Compound Concentration 10.0 uM)	inhibition ([2]; Compound Concentration 10.0 uM)	inhibition ([3]; Compound Concentration 10.0 uM)	inhibition ([4]; Compound Concentration 10.0 uM)	inhibition ([5]; Compound Concentration 10.0 uM)	inhibition ([6]; Compound Concentration 10.0 uM)	inhibition ([7]; Compound Concentration 10.0 uM)	inhibition [8]	inhibition ([1]; Compound Concentration 1.0 uM)	inhibition ([2]; Compound Concentration 1.0 uM)	inhibition ([3]; Compound Concentration 1.0 uM)	inhibition ([5]; Compound Concentration 1.0 uM)	inhibition ([6]; Compound Concentration 1.0 uM)	inhibition ([7]; Compound Concentration 1.0 uM)	inhibition ([4]; Compound Concentration 1.0 uM)
Cc1cnc(-c2cc(Cl)ccc2F)cc1-n1c(=O)n(CC(N)=O)c2ccccc21	1.32%	36.9%	-6.05%	-5.78%	23.2%	7.03%	-7.14%	–	–	–	–	–	–	–	–
CC(=O)C1=C(C)N(c2cccc(C(F)(F)F)c2)C(=O)N[C@H]1c1ccc(C#N)nc1	-0.968%	60.5%	-5.95%	–	45.5%	10.2%	-1.74%	6.4%	–	–	–	–	–	–	–
Cn1nc(C(F)(F)F)cc1-c1cnc(N2CCc3cc(S(=O)(=O)Nc4c(F)cc(Cl)cc4F)cc(N4CCCC4=O)c32)nc1	1.37%	59.5%	17.9%	–	53.9%	9.91%	12.6%	4.87%	–	–	–	–	–	–	–
N#Cc1ccc(Nc2ccc3[nH]c(=O)[nH]c3c2)c(Cl)c1	–	–	–	–	–	–	–	–	1.6%	63.1%	7.43%	38.3%	11.9%	-3.21%	–
O=C(Nc1cccnn1)N1CC(C/C=C/c2cncc(Oc3ccc(C(F)(F)F)cn3)n2)C1	-1.71%	63.3%	-2.62%	–	97.9%	18.1%	-7.39%	–	–	–	–	–	–	–	–
CCCn1c(=O)c2[nH]c(-c3cnn(Cc4cccc(C(F)(F)F)c4)c3)nc2n(CC)c1=O	–	-7.87%	-1.26%	-6.43%	-4.73%	4.62%	-1.7%	-0.234%	–	–	–	–	–	–	–
Cc1c(NC(=O)c2cc(C(N)=O)nc3cc(F)ccc23)c(C(F)(F)F)nn1Cc1ccc(C(C)(C)C)cc1	–	–	–	–	–	–	–	–	0.116%	59.5%	11.6%	55.8%	16.4%	-8.67%	-8.32%
CN([C@@H]1CCc2c(CC(=O)O)c3cc(S(C)(=O)=O)ccc3n2C1)S(=O)(=O)c1ccc(F)cc1	2.31%	53.8%	-3.16%	–	46%	11.2%	-10%	–	–	–	–	–	–	–	–
Cc1ccc(Cn2nc(C(=O)N[C@@H]3C(C)(C)[C@@H]4CC[C@@]3(C)C4)cc2-c2ccc(Cl)c(C)c2)cc1	–	-2.75%	-0.363%	10.9%	21.7%	-0.0818%	-0.971%	7%	–	–	–	–	–	–	–
Cc1c(OCc2cccc(-c3ccc(C(=O)O)cc3)c2)cc2c(c1C)C(=O)C(C1CCCC1)C2 (stereo unspecified)	–	-8.74%	-1.13%	-5.54%	-4.78%	-3.76%	0.771%	-2.23%	–	–	–	–	–	–	–
O=C(Nc1ccc(-c2ccnc(Nc3ccc(N4CCOCC4)cc3)n2)cc1)[C@@H]1CCCN1	–	–	–	–	–	–	–	–	3.18%	-0.777%	14.9%	58.2%	24.9%	1.3%	5.95%
CC(C)(O)c1cncc(-c2nc3ccc(F)cc3n2C2CC2)c1	-3.32%	59.6%	11.5%	–	50.2%	1.08%	8.25%	–	–	–	–	–	–	–	–
C(#Cc1cccc(CN2CCOCC2)c1)CCN1CCCCC1	–	0.0339%	-3.69%	11.2%	-1.72%	-7.54%	-4.46%	-2.73%	–	–	–	–	–	–	–
O=C(Cc1ccccc1)Nc1nnc(N2C[C@H]3C[C@@H]2CN3c2cccnn2)s1	–	–	–	–	–	–	–	–	2.12%	62%	-1.58%	47.1%	13.8%	0.672%	2.13%
COc1cc2c(CCNC(C)=O)c[nH]c2cc1Cl	–	5.14%	-5.23%	-9.99%	4.32%	0.936%	-6.18%	0.0156%	–	–	–	–	–	–	–
